These results are taken from patent publication US20210330611A1, “THERAPY FOR NEUROLOGICAL DISEASES/DISORDERS” (priority 2020, published 2021).

Common to all, as to assay type: cell-based, rat
In experiment [1] the test system is fibrin-induced microglia activation. Kind of experiment: Image-based assay of fibrin-induced microglia activation (HTS and dose response). The note with it: Rattus norvegicus, Microglia; for inhibition at 10 µM: read-out: Fibrin % inhibition; for IC50: Table 7, read-out: fib_IC50.
For experiment [2], the system named is LPS-induced microglia activation. Kind of experiment: Image-based assay of LPS-induced microglia activation (HTS and dose response).
The test system of experiment [3] is fibrin- and LPS-induced microglia activation. Kind of experiment: cells. The note with it: for Activity: Table 7, fib = fibrin, LPS, tox = toxicity.
[4] abbreviates: primary microglia HTS, fibrin stimulation, compounds at 10 μM.
Setting [5] is: primary microglia HTS, fibrin stimulation, increased cell size (>800 μm^2) as marker of activation.
Setting [6] is: Rattus norvegicus, Microglia, 48 h, primary microglia HTS, LPS stimulation; increased cell size (>800 μm^2) as marker of activation; read-out: LPS % inhibition.
Where [7] appears, read: Rattus norvegicus, Microglia, primary microglia HTS, LPS stimulation, compounds at 10 μM; read-out: LPS % inhibition.
Where [8] appears, read: quadrant by fibrin and LPS inhibition in HTS of 1907 compounds.
[9] abbreviates: quadrant by fibrin and LPS inhibition, HTS at 10 μM.
[10] abbreviates: Rattus norvegicus, Microglia, 48 h, read-out: LPS % inhibition.
Setting [11] is: primary microglia HTS, fibrin stimulation, cell size >800 μm2 as marker of activation.
Setting [12] is: Rattus norvegicus, Microglia, 48 h; read-out: LPS % inhibition.
[13] abbreviates: classification by fibrin and LPS inhibition in HTS.
[14] abbreviates: Rattus norvegicus, Microglia, Table 7; read-out: LPS_IC50.

Read-outs that look alike come from different tables or passages of the source.

With `Cc1nccn1CC1CCc2c(c3ccccc3n2C)C1=O` (centres unmarked) [Ondansetron], the inhibition at 10 µM in experiment [1] (setting [4]) was 106%; in experiment [1] (setting [5]), -6%; in experiment [2] (setting [6]), 14%; in experiment [2] (setting [7]), 92%. The results for the “Quadrant (FIG. 5b)” value in experiment [3] (setting [8]) and in experiment [3] (setting [9]) were “Q4” and “Q2”, respectively.
For `CC(C)(CO)[C@@H](O)C(=O)NCCC(=O)NCCSSCCNC(=O)CCNC(=O)[C@H](O)C(C)(C)CO` [Pantethine], the values for the inhibition at 10 µM in experiment [1] and in experiment [2] (setting [10]) were -53% and 7%, respectively. In addition, the “Quadrant (FIG. 5b)” value in experiment [3] is recorded as “Q4”.
In the case of `CC(N)C(O)c1ccccc1` (centres unmarked) [Phenylpropanolamine], the inhibition at 10 µM in experiment [1] is -2%; in experiment [2] (setting [10]), -6%. In addition, the “Quadrant (FIG. 5b)” value in experiment [3] is “Q4”.
For the compound `CC(N/C(=N\C#N)Nc1ccncc1)C(C)(C)C` (centres unmarked) [Pinacidil], the inhibition at 10 µM was determined as 15% in experiment [1] (setting [11]) and 26% in experiment [2] (setting [12]). The “Quadrant (FIG. 5b)” value in experiment [3] (setting [13]) is “Q4”.
With `O=C(CCBr)N1CCN(C(=O)CCBr)CC1` [Pipobroman], the inhibition at 10 µM is -28% in experiment [1] and 0% in experiment [2] (setting [10]). Also, the “Quadrant (FIG. 5b)” value in experiment [3] was “Q4”.
Take `COc1cc([C@@H]2c3cc4c(cc3[C@H](O)[C@H]3COC(=O)[C@H]23)OCO4)cc(OC)c1OC` [Podofilox, reference compound]: the results for the IC50 in experiment [1] and in experiment [2] (setting [14]) were 14 nM and 2 nM, respectively. Besides, the “Quadrant (FIG. 5b)” value in experiment [3] (Table 2, screen at 10 μM) was “Q2”. Also, in experiment [3], the Activity entry is “fib/LPS”.
As to `C[C@]12CC[C@H](O)CC1=CC[C@@H]1[C@@H]2CC[C@]2(C)C(=O)CC[C@@H]12` [Prasterone], the inhibition at 10 µM in experiment [1] (setting [11]) amounted to 1%; in experiment [2] (setting [12]), 15%. For the same compound, the “Quadrant (FIG. 5b)” value in experiment [3] (setting [13]) was “Q4”.
On to `C[C@]12C=CC(=O)C=C1CC[C@@H]1[C@@H]2[C@@H](O)C[C@@]2(C)[C@H]1CC[C@]2(O)C(=O)CO` [Prednisolone, reference compound], for which the IC50 in experiment [1] and in experiment [2] (setting [14]) was 2 nM throughout. Besides, the inhibition at 10 µM in experiment [1] (setting [4]) was determined as 97%; in experiment [1] (setting [5]), 114%; in experiment [2] (setting [6]), 100%; in experiment [2] (setting [7]) it was 87%. Further, the “Quadrant (FIG. 5b)” value in experiment [3] (Table 2, screen at 10 μM) is reported as “Q2”; in experiment [3] (setting [8]), “Q2”; in experiment [3] (setting [9]) it was “Q2”. In experiment [3], the Activity entry was “fib/LPS”.
For `CC(C)C[C@H](CN)CC(=O)O` [Pregabalin], the figures for the inhibition at 10 µM in experiment [1] and in experiment [2] (setting [10]) were -5% and 1%, respectively. For the same compound, the “Quadrant (FIG. 5b)” value in experiment [3] is listed as “Q4”.
As to `CCCNCC(O)COc1ccccc1C(=O)CCc1ccccc1` (centres unmarked) [Propafenone], the inhibition at 10 µM in experiment [1] worked out at 16%; in experiment [2] (setting [10]), 21%. For the same compound, the “Quadrant (FIG. 5b)” value in experiment [3] is “Q4”.
As to `CN[C@@H](C)[C@@H](O)c1ccccc1` [Pseudoephedrine], the inhibition at 10 µM in experiment [1] (setting [11]) was -13%; in experiment [2] (setting [12]), 5%. The “Quadrant (FIG. 5b)” value in experiment [3] (setting [13]) is “Q4”.
Take `Cc1cc(/C=C/c2ccc3cc(N(C)C)ccc3[n+]2C)c(C)n1-c1ccccc1` [Pyrvinium]: the inhibition at 10 µM in experiment [1] was 113%; in experiment [2] (Rattus norvegicus, Microglia, read-out: LPS % inhibition), 115%. In experiment [3], the “Quadrant (FIG. 5b)” value is “Q2”.

The inhibition is the relative decrease from the control value, in per cent.
